pIC50: −log10 of the molar value.
What follows are compounds tested against T1, human CD73 (Homo sapiens, UniProt P21589) (assay: Inhibition of Ecto-5′-nucleotidase (CD73) activity in CHO-CD73 cells, phosphate release from AMP). Conditions: CHO-K1 cells stably transfected with human CD73; 25 μM AMP; 50 minutes, 37° C.; read-out: Potency: CD73 IC50.
T1 sequence (P21589 27-549): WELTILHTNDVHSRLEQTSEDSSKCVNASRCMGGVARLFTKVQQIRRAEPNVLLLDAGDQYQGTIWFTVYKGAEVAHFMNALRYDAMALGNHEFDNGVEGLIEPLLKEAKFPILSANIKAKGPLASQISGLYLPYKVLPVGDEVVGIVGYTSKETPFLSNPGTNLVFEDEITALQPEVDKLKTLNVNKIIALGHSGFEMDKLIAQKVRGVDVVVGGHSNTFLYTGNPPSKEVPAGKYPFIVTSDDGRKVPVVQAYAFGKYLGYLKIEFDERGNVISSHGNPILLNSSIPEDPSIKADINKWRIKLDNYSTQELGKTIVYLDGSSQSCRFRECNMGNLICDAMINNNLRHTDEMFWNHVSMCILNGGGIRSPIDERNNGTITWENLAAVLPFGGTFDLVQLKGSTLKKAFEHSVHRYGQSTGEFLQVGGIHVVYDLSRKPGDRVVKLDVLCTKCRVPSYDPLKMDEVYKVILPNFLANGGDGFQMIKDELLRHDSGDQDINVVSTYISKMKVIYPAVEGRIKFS
Type: cell-based

| pIC50 | SMILES |
| --- | --- |
| 6.00 to 7.00 | Cc1cc(C)cc(-n2nccc2-c2cc(Cl)c3nnn(-c4ccc5[nH]c(=O)[nH]c5c4)c3c2)c1 [Example 241] |
| 6.00 to 7.00 | COc1ccc(Cn2nccc2-c2cc(F)c3nnn(-c4ccc5[nH]c(=O)[nH]c5c4)c3c2)c(Cl)c1 [Example 246] |
| 6.00 to 7.00 | COc1ccc(Cn2nccc2-c2cc3c(cn2)nnn3-c2ccc3[nH]c(=O)[nH]c3c2)c(Cl)c1 [Example 248] |
| < 6.00 | CS(=O)(=O)Nc1cc(Cl)ccc1Cn1nccc1-c1cc(F)c2nnn(-c3ccc4[nH]c(=O)[nH]c4c3)c2c1 [Example 251] |
| 6.00 to 7.00 | O=c1[nH]c2ccc(-n3nnc4c(Cl)cc(-c5ccnn5Cc5cc(F)c(Cl)cc5Cl)cc43)cc2[nH]1 [Example 256] |
| 6.00 to 7.00 | O=c1[nH]c2ccc(-n3nnc4c(Cl)cc(-c5ccnn5C5CCc6cc(Cl)ccc65)cc43)cc2[nH]1 (stereo not drawn) [Example 262] |
| < 6.00 | O=c1[nH]c2ccc(-n3nnc4c(Cl)cc(-c5ccnn5Cc5cccc[n+]5[O-])cc43)cc2[nH]1 [Example 265] |
| < 6.00 | N#Cc1ccc(Cn2nccc2-c2cc(F)c3nnn(-c4ccc5[nH]c(=O)[nH]c5c4)c3c2)c(CN2CCOCC2)c1 [Example 268] |
| 6.00 to 7.00 | O=c1[nH]c2ccc(-n3nnc4c(Cl)cc(-c5ccnn5C5Cc6ccc(Cl)cc6C5)cc43)cc2[nH]1 (stereo not drawn) [Example 275] |
| 6.00 to 7.00 | O=c1[nH]c2ccc(-n3nnc4c(F)cc(-c5ccnn5Cc5cccc(Cl)c5Cl)cc43)cc2[nH]1 [Example 283] |
| 6.00 to 7.00 | N#Cc1ccc(Cn2nccc2-c2cc(F)c3nnn(-c4ccc5[nH]c(=O)[nH]c5c4)c3c2)c(CNC2CCCC2)c1 [Example 286] |
| < 6.00 | N#Cc1ccc(Cn2nccc2-c2cc(Cl)c3nnn(-c4ccc5[nH]c(=O)[nH]c5c4)c3c2)c(N2CCOCC2)c1 [Example 288] |
| 6.00 to 7.00 | CC(=O)c1cc(C#N)ccc1Cn1nccc1-c1cc(F)c2nnn(-c3ccc4[nH]c(=O)[nH]c4c3)c2c1 [Example 289] |
| 6.00 to 7.00 | N#Cc1ccc(Cn2nccc2-c2cc(F)c3nnn(-c4ccc5[nH]c(=O)[nH]c5c4)c3c2)c(S(=O)(=O)c2ccccc2)c1 [Example 291] |
| 6.00 to 7.00 | Cc1cc(-n2nccc2-c2cc(Cl)c3nnn(-c4ccc5[nH]c(=O)[nH]c5c4)c3c2)ccn1 [Example 293] |
| 6.00 to 7.00 | N#Cc1ccc(Cn2nccc2-c2cc(F)c3nnn(-c4ccc5[nH]c(=O)[nH]c5c4)c3c2)c(CN2CC(C(=O)O)C2)c1 [Example 294] |
| < 6.00 | Nc1nn(-c2ccc3[nH]c(=O)[nH]c3c2)c2cc(-c3ccnn3Cc3ccc(Cl)cn3)cnc12 [Example 295] |
| 6.00 to 7.00 | N#Cc1ccc(Cn2nccc2-c2cc(F)c3nnn(-c4ccc5[nH]c(=O)[nH]c5c4)c3c2)c(CNCC2CCCC2)c1 [Example 296] |
| > 7.00 | N#Cc1ccc(Cn2nccc2-c2cc(F)c3nnn(-c4ccc5[nH]c(=O)[nH]c5c4)c3c2)c(CO)c1 [Example 297] |
| 6.00 to 7.00 | N#Cc1ccc(Cn2nccc2-c2cc(F)c3nnn(-c4ccc5[nH]c(=O)[nH]c5c4)c3c2)c(-c2ncco2)c1 [Example 299] |
| 6.00 to 7.00 | CS(=O)(=O)c1cccc(-n2nccc2-c2cc(Cl)c3nnn(-c4ccc5[nH]c(=O)[nH]c5c4)c3c2)c1 [Example 301] |

Continued, compound first:

| SMILES | pIC50 |
| --- | --- |
| N#Cc1ccc(Cn2nccc2-c2ccc3nnn(-c4ccc5[nH]c(=O)[nH]c5c4)c3c2)c(F)c1 [Example 240] | 6.00 to 7.00 |
| O=c1[nH]c2ccc(-n3nnc4c(F)cc(-c5ccnn5Cc5cccc6cn[nH]c56)cc43)cc2[nH]1 [Example 242] | < 6.00 |
| O=c1[nH]c2ccc(-n3nnc4c(F)cc(-c5ccnn5Cc5nc6ccccc6[nH]5)cc43)cc2[nH]1 [Example 243] | 6.00 to 7.00 |
| Cc1ncc(Cn2nccc2-c2cc(Cl)c3nnn(-c4ccc5[nH]c(=O)[nH]c5c4)c3c2)o1 [Example 244] | < 6.00 |
| COc1ccc(Cn2nccc2-c2cc(F)c3nnn(-c4ccc5[nH]c(=O)[nH]c5c4)c3c2)c(F)c1 [Example 245] | 6.00 to 7.00 |
| COc1ccc(Cn2nccc2-c2cc3c(cn2)nnn3-c2ccc3[nH]c(=O)[nH]c3c2)c(F)c1 [Example 247] | 6.00 to 7.00 |
| Cn1nccc1Cn1nccc1-c1cc(F)c2nnn(-c3ccc4[nH]c(=O)[nH]c4c3)c2c1 [Example 249] | < 6.00 |
| N#Cc1ccc(Cn2nccc2-c2cc(Cl)c3nnn(-c4ccc5[nH]c(=O)[nH]c5c4)c3c2)c(Cl)c1 [Example 250] | > 7.00 |
| O=c1[nH]c2ccc(-n3nnc4c(Cl)cc(-c5ccnn5Cc5cc(F)ccc5F)cc43)cc2[nH]1 [Example 252] | < 6.00 |
| Cc1ccc(Cn2nccc2-c2cc(Cl)c3nnn(-c4ccc5[nH]c(=O)[nH]c5c4)c3c2)c(F)c1F [Example 253] | 6.00 to 7.00 |
| O=c1[nH]c2ccc(-n3nnc4c(Cl)cc(-c5ccnn5Cc5ccc(F)c(F)c5)cc43)cc2[nH]1 [Example 254] | 6.00 to 7.00 |
| N#Cc1cnc(Cn2nccc2-c2cc(F)c3nnn(-c4ccc5[nH]c(=O)[nH]c5c4)c3c2)c(F)c1 [Example 255] | 6.00 to 7.00 |
| O=c1[nH]c2ccc(-n3nnc4c(F)cc(-c5ccnn5Cc5ccc6[nH]cnc6c5)cc43)cc2[nH]1 [Example 257] | < 6.00 |
| CC(C)c1cccc(-n2nccc2-c2cc(Cl)c3nnn(-c4ccc5[nH]c(=O)[nH]c5c4)c3c2)c1 [Example 258] | 6.00 to 7.00 |
| CS(=O)(=O)c1cc(C#N)ccc1Cn1nccc1-c1cc(F)c2nnn(-c3ccc4[nH]c(=O)[nH]c4c3)c2c1 [Example 260] | 6.00 to 7.00 |
| CCS(=O)(=O)c1cc(C#N)ccc1Cn1nccc1-c1cc(F)c2nnn(-c3ccc4[nH]c(=O)[nH]c4c3)c2c1 [Example 261] | 6.00 to 7.00 |
| Cc1cc(-n2nccc2-c2cc(Cl)c3nnn(-c4ccc5[nH]c(=O)[nH]c5c4)c3c2)ccc1Cl [Example 263] | < 6.00 |
| C=C(C)c1cc(C#N)ccc1Cn1nccc1-c1cc(F)c2nnn(-c3ccc4[nH]c(=O)[nH]c4c3)c2c1 [Example 264] | 6.00 to 7.00 |
| Cn1ccc(Cn2nccc2-c2cc(F)c3nnn(-c4ccc5[nH]c(=O)[nH]c5c4)c3c2)n1 [Example 266] | < 6.00 |
| N#Cc1ccc(Cn2nccc2-c2cc(F)c3nnn(-c4ccc5[nH]c(=O)[nH]c5c4)c3c2)c(Br)c1 [Example 267] | 6.00 to 7.00 |
| N#Cc1cnc(Cn2nccc2-c2cc(Cl)c3nnn(-c4ccc5[nH]c(=O)[nH]c5c4)c3c2)c(Cl)c1 [Example 269] | 6.00 to 7.00 |

| SMILES | pIC50 |
| --- | --- |
| Cc1cc(C#N)ccc1Cn1nccc1-c1cc(Cl)c2nnn(-c3ccc4[nH]c(=O)[nH]c4c3)c2c1 [Example 270] | > 7.00 |
| N#Cc1ccc(Cn2nccc2-c2cc(F)c3nnn(-c4ccc5[nH]c(=O)[nH]c5c4)c3c2)c(C(F)(F)F)c1 [Example 271] | 6.00 to 7.00 |
| N#Cc1cc(F)c(Cn2nccc2-c2cc(Cl)c3nnn(-c4ccc5[nH]c(=O)[nH]c5c4)c3c2)cc1F [Example 272] | 6.00 to 7.00 |
| N#Cc1cc(F)c(Cn2nccc2-c2cc(Cl)c3nnn(-c4ccc5[nH]c(=O)[nH]c5c4)c3c2)c(F)c1 [Example 273] | 6.00 to 7.00 |
| Nc1nn(-c2ccc3cn[nH]c3c2)c2cc(-c3ccnn3Cc3ccc(Cl)cn3)cnc12 [Example 274] | 6.00 to 7.00 |
| N#Cc1cc(F)c(Cn2nccc2-c2cc(F)c3nnn(-c4ccc5[nH]c(=O)[nH]c5c4)c3c2)c(Cl)c1 [Example 276] | < 6.00 |
| N#Cc1ccc(Cn2nccc2-c2cc(F)c3nnn(-c4ccc5[nH]c(=O)[nH]c5c4)c3c2)c(CN[C@H]2CCOC2)c1 [Example 277] | < 6.00 |
| N#Cc1ccc(Cn2nccc2-c2cc(F)c3nnn(-c4ccc5[nH]c(=O)[nH]c5c4)c3c2)c(CN2CCCC2)c1 [Example 278] | < 6.00 |
| COCc1cc(C#N)ccc1Cn1nccc1-c1cc(F)c2nnn(-c3ccc4[nH]c(=O)[nH]c4c3)c2c1 [Example 279] | 6.00 to 7.00 |
| Cc1cc(C#N)cnc1Cn1nccc1-c1cc(F)c2nnn(-c3ccc4[nH]c(=O)[nH]c4c3)c2c1 [Example 280] | < 6.00 |
| N#Cc1ccc(Cn2nccc2-c2cnc3c(N)nn(-c4ccc5cn[nH]c5c4)c3c2)nc1 [Example 281] | 6.00 to 7.00 |
| O=c1[nH]c2ccc(-n3nnc4c(F)cc(-c5ccnn5Cc5cccc(F)c5Cl)cc43)cc2[nH]1 [Example 282] | 6.00 to 7.00 |
| COc1cc(Cl)ccc1Cn1nccc1-c1cc(F)c2nnn(-c3ccc4[nH]c(=O)[nH]c4c3)c2c1 [Example 284] | 6.00 to 7.00 |
| N#Cc1ccc(Cn2nccc2-c2cc(F)c3nnn(-c4ccc5[nH]c(=O)[nH]c5c4)c3c2)c(CN2CCC2C(=O)O)c1 (stereo not drawn) [Example 285] | < 6.00 |
| Nc1cccc(Cn2nccc2-c2cc(Cl)c3nnn(-c4ccc5[nH]c(=O)[nH]c5c4)c3c2)n1 [Example 287] | < 6.00 |
| N#Cc1ccc(Cn2nccc2-c2cc(F)c3nnn(-c4ccc5[nH]c(=O)[nH]c5c4)c3c2)c(C(N)=O)c1 [Example 290] | 6.00 to 7.00 |
| N#Cc1ccc(Cn2nccc2-c2cc(F)c3nnn(-c4ccc5[nH]c(=O)[nH]c5c4)c3c2)c(OC(F)(F)F)c1 [Example 292] | 6.00 to 7.00 |
| Cc1cc(-n2nccc2-c2cc(Cl)c3nnn(-c4ccc5[nH]c(=O)[nH]c5c4)c3c2)cc(C)n1 [Example 300] | 6.00 to 7.00 |
| Cc1cc(C#N)ccc1Cn1nccc1-c1cc(F)c2nnn(-c3ccc4[nH]c(=O)[nH]c4c3)c2c1 [Example 302] | 6.00 to 7.00 |
| Cn1nccc1-c1cc(C#N)ccc1Cn1nccc1-c1cc(F)c2nnn(-c3ccc4[nH]c(=O)[nH]c4c3)c2c1 [Example 303] | 6.00 to 7.00 |
| N#Cc1ccc(Cn2nccc2-c2cc(F)c3nnn(-c4ccc5[nH]c(=O)[nH]c5c4)c3c2)c(-c2ccn[nH]2)c1 [Example 304] | 6.00 to 7.00 |
